From patent US20200239530A1, “COMPOUNDS AND METHODS OF MODULATING PROTEIN DEGRADATION” (Vividion Therapeutics, Inc., priority 2017, published 2020)

Key:
Assay in all cases: Cysteine liganding, probe competition
Format in all cases: binding
[1] = biological target: T1, ANAPC7 Anaphase-promoting complex subunit 7 (Homo sapiens, UniProt Q9UJX3)
T1 construct: Cells were resuspended in cold PBS on ice and sonicated with a probe sonicator to achieve lysis; endogenous in cells
Outline: (§1)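 Steps: sonicate cells in cold PBS; treat 5 mg/ml lysate with compound (25° C, 1 hr); add desthiobiotin iodoacetamide probe from a 10 mM stock (25° C, 1 hr); precipitate, reduce, alkylate, digest with trypsin; capture labelled peptides on streptavidin for analysis.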

[2] = biological target: T2, CDK18 Cyclin-dependent kinase 18 (Homo sapiens, UniProt Q07002); details: for Liganded: CDK18 Res# 183, uniprot Q07002
T2 construct: 200 μL of lysate containing 5 mg/ml proteome was treated with 2 μL of 100× compound stock; endogenous in cells
T2 sequence (Q07002 whole entry): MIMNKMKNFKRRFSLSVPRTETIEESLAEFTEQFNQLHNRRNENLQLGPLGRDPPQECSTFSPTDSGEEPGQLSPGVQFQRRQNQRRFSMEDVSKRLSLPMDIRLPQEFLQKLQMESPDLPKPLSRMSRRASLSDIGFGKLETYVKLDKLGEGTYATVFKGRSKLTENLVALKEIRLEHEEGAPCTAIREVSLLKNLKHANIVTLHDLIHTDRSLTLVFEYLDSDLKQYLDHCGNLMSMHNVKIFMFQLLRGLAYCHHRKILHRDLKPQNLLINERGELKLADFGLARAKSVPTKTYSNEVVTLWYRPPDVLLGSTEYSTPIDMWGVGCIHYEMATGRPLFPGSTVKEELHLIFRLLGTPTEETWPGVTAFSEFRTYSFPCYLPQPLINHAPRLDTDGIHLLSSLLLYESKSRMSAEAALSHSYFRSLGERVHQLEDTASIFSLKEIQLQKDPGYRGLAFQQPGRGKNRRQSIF
Outline: as §1

SNX8 Sorting nexin-8 = biological target: T3, SNX8 Sorting nexin-8 (Homo sapiens, UniProt Q9Y5X2)
T3 construct: Cells were resuspended in cold PBS on ice and sonicated with a probe sonicator to achieve lysis; endogenous in cells
T3 sequence (Q9Y5X2 1-465): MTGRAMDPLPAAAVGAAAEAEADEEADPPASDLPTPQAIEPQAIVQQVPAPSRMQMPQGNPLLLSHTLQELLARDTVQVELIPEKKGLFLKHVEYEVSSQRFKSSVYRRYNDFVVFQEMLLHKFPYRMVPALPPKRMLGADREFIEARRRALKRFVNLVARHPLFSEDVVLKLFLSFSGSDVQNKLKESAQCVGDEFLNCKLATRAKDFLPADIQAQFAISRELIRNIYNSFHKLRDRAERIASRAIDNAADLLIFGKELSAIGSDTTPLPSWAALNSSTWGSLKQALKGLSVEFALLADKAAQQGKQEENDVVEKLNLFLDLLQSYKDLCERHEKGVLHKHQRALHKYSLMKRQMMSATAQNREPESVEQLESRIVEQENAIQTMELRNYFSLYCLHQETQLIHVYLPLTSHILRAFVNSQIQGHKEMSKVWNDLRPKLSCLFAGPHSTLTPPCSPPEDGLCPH
Outline: as §1

[3] = biological target: T4, UNC93B1 Protein unc-93 homolog B1 (Homo sapiens, UniProt Q9H1C4)
T4 construct: Cells were resuspended in cold PBS on ice and sonicated with a probe sonicator to achieve lysis; endogenous in cells
T4 sequence (Q9H1C4 1-597): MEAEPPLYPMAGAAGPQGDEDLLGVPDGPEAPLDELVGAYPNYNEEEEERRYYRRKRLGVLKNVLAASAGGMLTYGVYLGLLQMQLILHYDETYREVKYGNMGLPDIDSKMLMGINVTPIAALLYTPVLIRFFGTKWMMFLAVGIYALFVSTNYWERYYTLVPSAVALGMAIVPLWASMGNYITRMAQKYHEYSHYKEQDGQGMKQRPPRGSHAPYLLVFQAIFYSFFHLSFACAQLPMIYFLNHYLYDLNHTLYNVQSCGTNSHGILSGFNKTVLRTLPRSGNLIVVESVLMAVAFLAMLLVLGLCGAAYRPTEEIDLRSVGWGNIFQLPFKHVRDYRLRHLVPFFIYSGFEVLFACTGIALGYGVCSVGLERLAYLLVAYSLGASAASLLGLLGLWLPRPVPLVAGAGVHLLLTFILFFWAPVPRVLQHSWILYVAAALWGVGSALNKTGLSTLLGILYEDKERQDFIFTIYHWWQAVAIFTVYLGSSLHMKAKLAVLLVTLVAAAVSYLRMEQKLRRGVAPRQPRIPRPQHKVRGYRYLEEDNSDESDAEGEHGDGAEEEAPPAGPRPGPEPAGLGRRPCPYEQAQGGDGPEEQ
Outline: as §1

T1 sequence (Q9UJX3 whole entry, one chain of several): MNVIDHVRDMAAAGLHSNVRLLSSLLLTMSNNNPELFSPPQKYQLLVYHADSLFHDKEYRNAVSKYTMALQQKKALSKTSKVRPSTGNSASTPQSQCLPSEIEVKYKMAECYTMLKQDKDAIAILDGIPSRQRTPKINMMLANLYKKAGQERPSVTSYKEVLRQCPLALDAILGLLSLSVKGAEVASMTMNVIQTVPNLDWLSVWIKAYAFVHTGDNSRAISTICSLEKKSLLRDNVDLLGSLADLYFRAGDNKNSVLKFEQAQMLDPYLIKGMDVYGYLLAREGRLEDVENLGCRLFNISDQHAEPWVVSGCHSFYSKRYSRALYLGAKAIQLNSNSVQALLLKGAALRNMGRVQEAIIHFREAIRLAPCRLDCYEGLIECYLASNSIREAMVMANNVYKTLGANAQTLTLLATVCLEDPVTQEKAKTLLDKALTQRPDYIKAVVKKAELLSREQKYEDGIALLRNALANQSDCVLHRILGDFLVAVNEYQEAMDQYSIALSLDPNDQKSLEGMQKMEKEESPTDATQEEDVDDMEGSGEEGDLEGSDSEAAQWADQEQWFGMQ

Compound	Liganded ([1]; ANAPC7 Res# 329, uniprot Q9UJX3)	Liganded [2]	Liganded (SNX8 Sorting nexin-8; SNX8 Res# 200, uniprot Q9Y5X2)	Liganded ([3]; UNC93B1 Res# 583, uniprot Q9H1C4)	100 Max ([1]; uniprot Q9UJX3)	100 ave ([1]; uniprot Q9UJX3)	500 Max ([1]; uniprot Q9UJX3)	500 ave ([1]; uniprot Q9UJX3)	100 Max ([2]; uniprot Q07002)	100 ave ([2]; uniprot Q07002)	500 Max ([2]; uniprot Q07002)	500 ave ([2]; uniprot Q07002)	100 Max (SNX8 Sorting nexin-8; uniprot Q9Y5X2)	100 ave (SNX8 Sorting nexin-8; uniprot Q9Y5X2)	100 Max ([3]; uniprot Q9H1C4)	100 ave ([3]; uniprot Q9H1C4)	500 ave ([3]; uniprot Q9H1C4)	500 Max ([3]; uniprot Q9H1C4, in % (unit assumed))
COc1ccc2c(c1)CCCN2C(=O)CCl [KB02]	YES	YES	YES	YES														
O=C(CCl)Nc1cc(C(F)(F)F)cc(C(F)(F)F)c1 [KBO3]		YES			60.9	47.5	73.4	68.4	50.67	28.2075	80.44	79.225	36.21	36.21	29.9385	13	70.38	72.3195
